SMILES strings stand for the structures.

These results are taken from ChEMBL document CHEMBL1131777, “Analogs of 4-(3-bromo-8-methyl-10-methoxy-6,11-dihydro-5H-benzo[5,6]-cyclo hepta[1,2-b]pyridin-11-yl)-1-(4-pyridinylacetyl)piperidine N-oxide as inhibitors of farnesyl protein transferase” (Bioorg Med Chem Lett, 1999).

Experiment [1] has as its target T1, Protein farnesyltransferase (Homo sapiens, UniProt P49354+P49356). Kind of experiment: In vitro inhibition of human Farnesyltransferase. The class given is protein-complex assay.
Experiment [2] has as its target T1, Protein farnesyltransferase. Kind of experiment: Percent inhibition of human Farnesyltransferase. Format: protein-complex assay. Conditions: concentration not given here.

In the case of `COc1cc(C)cc2c1C(C1CCN(C(=O)Cc3cc[n+]([O-])cc3)CC1)c1ncc(C)cc1CC2` (configuration not stated), the IC50 in experiment [1] came to 34 nM.

Consider `CCc1cnc2c(c1)CCc1cc(C)cc(OC)c1C2C1CCN(C(=O)Cc2cc[n+]([O-])cc2)CC1` (configuration not stated), for which it took 74 nM to reach half-maximal inhibition in experiment [1] (IC50).

Molecule `COc1cc(C)cc2c1[C@@H](C1CCN(C(=O)Cc3cc[n+]([O-])cc3)CC1)c1ncc(Br)cc1CC2` had an IC50 in experiment [1] of 3.6 nM.

As for `COc1cc(C)cc2c1C(C1CCN(C(=O)Cc3cc[n+]([O-])cc3)CC1)c1ncc(C3CC3)cc1CC2` (configuration not stated), the IC50 in experiment [1] came out at 200 nM. Compared with the last molecule, the IC50 is about 56-fold higher.

As for `C=Cc1cnc2c(c1)CCc1cc(C)cc(OC)c1C2C1CCN(C(=O)Cc2cc[n+]([O-])cc2)CC1` (configuration not stated), 59 nM corresponded to half-maximal inhibition in experiment [1] (IC50).

Consider `COc1cc(C)cc2c1C(C1CCN(C(=O)Cc3cc[n+]([O-])cc3)CC1)c1ncc(C(C)(C)O)cc1CC2` (configuration not stated), for which the inhibition in experiment [2] is 26%.

In experiment [1], `COc1cc(C)cc2c1C(C1CCN(C(=O)Cc3cc[n+]([O-])cc3)CC1)c1ncccc1CC2` (configuration not stated) came in with a half-maximal inhibitory concentration (IC50) of 140 nM. This counts as sub-micromolar.

As usually defined, the IC50 is the point on the concentration scale where inhibition reaches its midpoint. Usually inhibition stands for the percentage by which the read-out fell short of the control. A higher inhibition goes with strong suppression.
